One assay concerns the target T1, human SGLT2 (Homo sapiens, UniProt P31639).
T1 construct: expressed in transfected cells; host or cells: CHO-K1
T1 sequence (P31639 1-672): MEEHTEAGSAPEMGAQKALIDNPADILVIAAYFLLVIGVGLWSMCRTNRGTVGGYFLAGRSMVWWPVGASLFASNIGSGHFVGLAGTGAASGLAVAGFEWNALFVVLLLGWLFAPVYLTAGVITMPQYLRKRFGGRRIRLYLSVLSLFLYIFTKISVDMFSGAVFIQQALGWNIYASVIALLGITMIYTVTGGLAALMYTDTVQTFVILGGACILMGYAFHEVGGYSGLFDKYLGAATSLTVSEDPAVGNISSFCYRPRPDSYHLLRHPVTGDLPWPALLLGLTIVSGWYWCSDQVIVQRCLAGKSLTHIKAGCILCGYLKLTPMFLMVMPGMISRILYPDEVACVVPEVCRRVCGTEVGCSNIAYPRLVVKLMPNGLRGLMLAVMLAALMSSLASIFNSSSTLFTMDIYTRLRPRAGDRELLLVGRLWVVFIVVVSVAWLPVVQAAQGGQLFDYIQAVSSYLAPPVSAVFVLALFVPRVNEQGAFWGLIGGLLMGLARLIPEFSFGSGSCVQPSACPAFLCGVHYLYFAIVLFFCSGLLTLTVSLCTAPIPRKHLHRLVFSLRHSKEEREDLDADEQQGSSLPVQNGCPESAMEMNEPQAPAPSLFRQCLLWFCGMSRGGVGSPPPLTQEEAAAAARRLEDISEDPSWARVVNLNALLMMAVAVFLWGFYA
The assay is described as follows: Inhibitory activity against methyl-α-D-glucopyranoside uptake, CHO cells stably expressing human SGLT2. It counts as cell-based. As to conditions: inhibition of SGLT2, Table 2-1; read-out: IC50 value. The source says:
Evaluation of inhibitory activity against methyl-α-D-glucopyranoside uptake of human Na^+-glucose cotransporter (SGLT1 and SGLT2)
2) Construction of Human SGLT2 Expression Vector
Human SGLT2 cDNA was amplified by PCR with a cDNA library derived from human kidney (Clontech) as a template, synthetic DNA primers and KOD+ DNA Polymerase. The amplified cDNA was inserted into pcRII-Topo vector by using a Topo TA Cloning Dual Promoter kit. E. coli competent cells (TPO10) were transformed with the plasmid vector, cultured in LB medium containing ampicillin (50 mg/L) to grow ampicillin-resistant clones. The plasmid vector containing human SGLT2 cDNA was purified from the clone in a standard manner. Human SGLT2 cDNA added restriction enzyme recognition sites (Xho I at 5′-end, Hind III at 3′-end) was amplified by PCR with the plasmid vector as a template, synthetic DNA primers containing an additional restriction enzyme recognition site and KOD+ DNA Polymerase. This amplified cDNA was digested with Xho I and Hind III, and ligated into expression vector pcDNA3.1(−) digested with Xho I and Hind III by using a Rapid DNA Ligation kit. E. coli competent cells (DH5α) were transformed with the ligated expression vector and grown in ampicillin-containing LB medium. Human SGLT2 expression vector was purified from the ampicillin-resistant clone in a standard manner.
3) Establishment of Cell Lines Stably Expressing Human SGLT1 or Human SGLT2
The human SGLT1 expression vector or the human SGLT2 expression vector was digested with the restriction enzyme Pvu I and transfected into CHO-Kl cells with FuGENE (Roche Diagonostics). After the transfection, the cells were cultured at 37° C. in the presence of 5% CO2 for about 3 weeks in DMEM medium (Gibco) containing penicillin (50 U/mL, SIGMA), streptomycin (50 mg/L, SIGMA), geneticin (200 mg/L, Nacalai Tesque, Inc., Japan) and 20% fetal bovine serum to obtain geneticin-resistant clones. Among these clones, clones stably expressing human SGLT1 or human SGLT2 were selected by the evaluating the sodium-dependent uptake activity of sugar (methyl-α-D-glucopyranoside).
4) Evaluation of Inhibitory Activity Against methyl-α-D-glucopyranoside uptake
Cell lines stably expressing human SGLT1 or human SGLT2 CHO were seeded in 96-well culture plates at a density of 30000 to 40000 cells/well and cultured for 4 to 6 days. The medium in these plates was removed and replaced by 150 μL/well pretreatment buffer (i.e., a buffer containing 140 mM choline chloride, 2 mM potassium chloride, 1 mM calcium chloride, 1 mM magnesium chloride, 10 mM 2-[4-(2-hydroxyethyl)-1-piperazinyl]ethanesulfonic acid and tris(hydroxymethyl)aminomethane, pH 7.4), and the plates were incubated at 37° C. for 20 minutes. The pretreatment buffer in the plates was removed, replaced by 50 μL/well fresh pretreatment buffer, and the plates were incubated at 37° C. for 20 minutes. Methyl-α-D-(U—^14C)glucopyranoside (6.3 mL, Amersham Pharmacia Biotech, 200 mCi/L) was added to and mixed with 100 mL buffer (i.e., a buffer containing 140 mM sodium chloride, 2 mM potassium chloride, 1 mM calcium chloride, 1 mM magnesium chloride, 1 mM methyl-α-D-glucopyranoside, 10 mM [4-(2-hydroxyethyl)-1-piperazinyl]ethanesulfonic acid and tris(hydroxymethyl)aminomethane, pH 7.4), which was used as uptake buffer. Test compounds were dissolved into uptake buffer and these test compound solutions were used for evaluating inhibitory activity. Uptake buffer without a test compound was used as a control solution. Moreover, for use in measuring baseline uptake in the absence of sodium, sodium-free solution was prepared in the same manner to contain 140 mM choline chloride instead of sodium chloride. The pretreatment buffer was removed from each well of the plates and replaced by 35 μL/well test compound solutions, control solution or sodium-free solution, and the plates were incubated at 37° C. for 45 minutes. […]

For a further assay, the system named is db/db mice. Put plainly: Study for glucose lowering effect in db/db mouse. It counts as in vivo. As to conditions: Mus musculus, 6 hours. As to the method: Study for Glucose Lowering Effect in dB/dB Mouse
A study for glucose lowering effect was conducted using db/db mice (purchased from Clea Japan, Inc., male, 9 to 11 weeks old), type 2 diabetic model mice. On the day of the study, body weights and blood glucose levels were measured prior to the start of testing. Measurement of the blood glucose levels was performed using a simple blood glucose meter (manufactured by Bayer HealthCare, Dexter-Z II). The mice were allocated to some groups consisting of 5 mice each so that homogeneity of body weights or blood glucose levels among groups would be ensured. Blood collection was carried out by making an incision on the tip of the tail and taking the blood therefrom. On the day of the study, the test compounds were suspended in 0.5% carboxymethylcellulose solution (CMC solution), and the dosing solutions of which concentration was adjusted to either 0.3 mg/10 mL or 3 mg/10 mL were prepared. The dosing solutions were orally administered by gavage for mice in 10 mL/kg. To the control group, only a 0.5% CMC solution was orally administered in 10 mL/kg. Blood was collected prior to or sequentially after administration of test compounds by above method. The blood glucose levels were determined using a hexokinase method (AutoSera S GLU, manufactured by Daiichi Pure Chemicals Co., Ltd.). A percent reduction of blood glucose relative to control group at each time point after administration of test compounds was calculated by the following equation.
Percent reduction of blood glucose (%)={blood glucose level in the control group (mg/dL)-blood glucose level in the test compound group (mg/dL)}/blood glucose level in the control group (mg/dL)×100

[1] abbreviates: po, 0.3 mg/kg administration, read-out: reduction of blood glucose 6 hours after administration.
Setting [2] is: oral, 0.3 mg/kg, relative to control group, Table 3-1, read-out: Percent reduction of blood glucose (%) 6 hours after administration.

Where two headings read alike, the source gives them in different places.

Regarding `CCOc1ccc(Cc2cc3c(cc2C)CO[C@]32O[C@H](CO)[C@@H](O)[C@H](O)[C@H]2O)cc1` [Example 24, (1S,3′R,4′S,5′S,6′R)-6-[(4-ethoxyphenyl)methyl]-3′,4′,5′,6′-tetrahydro-6′-(hydroxymethyl)-5-methyl-spiro[isobenzofuran-1(3H),2′-[2H]pyran]-3′,4′,5′-triol], on human SGLT2, the 50% inhibitory concentration (IC50) is 1.8 nM. Moreover, in the assay with db/db mice (setting [1]), the inhibition in vivo at 0.3 mg/kg was no less than 25%.

In the case of `CCc1ccc(Cc2cc3c(cc2F)CO[C@]32O[C@H](CO)[C@@H](O)[C@H](O)[C@H]2O)cc1` [Example 16, (1S,3′R,4′S,5′S,6′R)-6-[(4-ethylphenyl)methyl]-5-fluoro-3′,4′,5′,6′-tetrahydro-6′-(hydroxymethyl)-spiro[isobenzofuran-1(3H),2′-[2H]pyran]-3′,4′,5′-triol], on human SGLT2, the IC50 was 1.5 nM. Moreover, the inhibition in vivo at 0.3 mg/kg in the assay with db/db mice (setting [1]) was no less than 25%.

Turning to `CCOc1ccc(Cc2cc3c(cc2F)CO[C@]32O[C@H](CO)[C@@H](O)[C@H](O)[C@H]2O)cc1` [Example 17, (1S,3′R,4′S,5′S,6′R)-6-[(4-ethoxyphenyl)methyl]-5-fluoro-3′,4′,5′,6′-tetrahydro-6′-(hydroxymethyl)-spiro[isobenzofuran-1(3H),2′-[2H]pyran]-3′,4′,5′-triol], the IC50 on human SGLT2 was 2.6 nM. Further, in the assay with db/db mice (setting [2]), the inhibition in vivo at 0.3 mg/kg was found to be 33%.

Take `CC(C)(C)c1ccc(Cc2cc3c(cc2Cl)CO[C@]32O[C@H](CO)[C@@H](O)[C@H](O)[C@H]2O)cc1` [Example 14, (1S,3′R,4′S,5′S,6′R)-6-[(4-tert-butylphenyl)methyl]-5-chloro-3′,4′,5′,6′-tetrahydro-6′-(hydroxymethyl)-spiro[isobenzofuran-1(3H),2′-[2H]pyran]-3′,4′,5′-triol]: the half-inhibitory concentration (IC50) on human SGLT2 was found to be 3.4 nM. The inhibition in vivo at 0.3 mg/kg with db/db mice (setting [1]) is no less than 25%.

For the compound `OC[C@H]1O[C@]2(OCc3cc(Cl)c(Cc4ccc(CC(F)F)cc4)cc32)[C@H](O)[C@@H](O)[C@@H]1O` [Example 10, (1S,3′R,4′S,5′S,6′R)-5-chloro-6-[(4-(2,2-difluoroethyl)phenyl)methyl]-3′,4′,5′,6′-tetrahydro-6′-(hydroxymethyl)-spiro[isobenzofuran-1(3H),2′-[2H]pyran]-3′,4′,5′-triol], the IC50 at human SGLT2 was determined as 1.2 nM. In addition, the inhibition in vivo at 0.3 mg/kg in the assay with db/db mice (setting [1]) was no less than 25%.

Turning to `C#Cc1cc2c(cc1Cc1ccc(CC)cc1)[C@]1(OC2)O[C@H](CO)[C@@H](O)[C@H](O)[C@H]1O` [Example 31, (1S,3′R,4′S,5′S,6′R)-6-[(4-ethylphenyl)methyl]-5-ethynyl-3′,4′,5′,6′-tetrahydro-6′-(hydroxymethyl)-spiro[isobenzofuran-1(3H),2′-[2H]pyran]-3′,4′,5′-triol], on human SGLT2, the half-inhibitory concentration (IC50) was 2.1 nM. Further, in the assay with db/db mice (setting [1]), the inhibition in vivo at 0.3 mg/kg is no less than 25%.

Turning to `OC[C@H]1O[C@]2(OCc3cc(Cl)c(Cc4cccs4)cc32)[C@H](O)[C@@H](O)[C@@H]1O` [Example 30, (1S,3′R,4′S,5′S,6′R)-5-chloro-3′,4′,5′,6′-tetrahydro-6′-(hydroxymethyl)-6-[(thiophen-2-yl)methyl]-spiro[isobenzofuran-1(3H),2′-[2H]pyran]-3′,4′,5′-triol], the IC50 on human SGLT2 was found to be 1.3 nM. Moreover, the inhibition in vivo at 0.3 mg/kg with db/db mice (setting [1]) was no less than 25%.

As for `COc1ccc(Cc2cc3c(cc2F)CO[C@]32O[C@H](CO)[C@@H](O)[C@H](O)[C@H]2O)cc1` [Example 20, (1S,3′R,4′S,5′S,6′R)-5-fluoro-3′,4′,5′,6′-tetrahydro-6′-(hydroxymethyl)-6-[(4-methoxyphenyl)methyl]-spiro[isobenzofuran-1(3H),2′-[2H]pyran]-3′,4′,5′-triol], on human SGLT2, the half-inhibitory concentration (IC50) is 2.2 nM. Also, the inhibition in vivo at 0.3 mg/kg with db/db mice (setting [1]) is no less than 25%.

As for `Cc1cc2c(cc1Cc1ccc(CCF)cc1)[C@]1(OC2)O[C@H](CO)[C@@H](O)[C@H](O)[C@H]1O` [Example 22, (1S,3′R,4′S,5′S,6′R)-6-[(4-(2-fluoroethyl)phenyl)methyl]-5-methyl-3′,4′,5′,6′-tetrahydro-6′-(hydroxymethyl)-spiro[isobenzofuran-1(3H),2′-[2H]pyran]-3′,4′,5′-triol], the IC50 at human SGLT2 is 1.1 nM. Besides, the inhibition in vivo at 0.3 mg/kg with db/db mice (setting [1]) was no less than 25%.

On to `CCCc1ccc(Cc2cc3c(cc2C)CO[C@]32O[C@H](CO)[C@@H](O)[C@H](O)[C@H]2O)cc1` [Example 25, (1S,3′R,4′S,5′S,6′R)-3′,4′,5′,6′-tetrahydro-6′-(hydroxymethyl)-5-methyl-6-[(4-propylphenyl)methyl]-spiro[isobenzofuran-1(3H),2′-[2H]pyran]-3′,4′,5′-triol], for which, on human SGLT2, the 50% inhibitory concentration (IC50) turned out to be 2.3 nM. The inhibition in vivo at 0.3 mg/kg in the assay with db/db mice (setting [1]) is no less than 25%.

For `CC(=O)c1ccc(Cc2cc3c(cc2Cl)CO[C@]32O[C@H](CO)[C@@H](O)[C@H](O)[C@H]2O)cc1` [Example 12, (1S,3′R,4′S,5′S,6′R)-6-[(4-acetylphenyl)methyl]-5-chloro-3′,4′,5′,6′-tetrahydro-6′-(hydroxymethyl)-spiro[isobenzofuran-1(3H),2′-[2H]pyran]-3′,4′,5′-triol], the IC50 on human SGLT2 was determined as 1.5 nM. The inhibition in vivo at 0.3 mg/kg in the assay with db/db mice (setting [2]) is 27%.

`Cc1cc2c(cc1Cc1ccc(OC(F)(F)F)cc1)[C@]1(OC2)O[C@H](CO)[C@@H](O)[C@H](O)[C@H]1O` [Example 27, (1S,3′R,4′S,5′S,6′R)-6-[(4-trifluoromethoxyphenyl)methyl]-3′,4′,5′,6′-tetrahydro-6′-(hydroxymethyl)-5-methyl-spiro[isobenzofuran-1(3H),2′-[2H]pyran]-3′,4′,5′-triol]: the IC50 on human SGLT2 is 2.6 nM. For the same compound, the inhibition in vivo at 0.3 mg/kg in the assay with db/db mice (setting [1]) was no less than 25%.

One may read the IC50 as the midpoint of a concentration-inhibition curve.

The values above are taken from patent US20110275703A1, “SUBSTITUTED SPIROKETAL DERIVATIVES AND USE THEREOF AS THERAPEUTIC DRUG FOR DIABETES” (CHUGAI SEIYAKU KABUSHIKI KAISHA, priority 2007, published 2011).
